This is an account of results in PubChem BioAssay (NCI).

Several values for one entry are separate records, joined by “and”; a condition that tells them apart may be missing. Equal entries are not always repeated.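 1) Cells in 96-well plates. 2) Compound, 48 h, 5 concentrations. 3) Linear interpolation between surrounding doses. 4) Unreached endpoint = highest concentration. Abbreviation: GI50, concentration required for 50% inhibition of growth. TGI: total growth inhibition.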

Common to all, as to test: growth of human tumour cells (NCI), 48 h
The test system of assay [1] is T-47D breast.
The test system of assay [2] is SNB-19 CNS.
Assay [3] relates to PC-3 prostate.
For assay [4], the system named is OVCAR-8 ovarian.
For assay [5], the system named is NCI-H522 lung.
Assay [6] concerns A549 NSCLC.
In assay [7] the test system is SW-620 colon.
Assay [8] deals with UACC-62 melanoma.
Assay [9] deals with COLO 205 colon.
Assay [10] concerns 786-0 renal.
Assay [11] concerns SN12C renal.
In assay [12] the test system is K-562 leukemia.
Assay [13] concerns EKVX NSCLC.
Assay [14] concerns UO-31 renal.
Assay [15] relates to SF-539 CNS.

For `C=C1C(=O)OC2/C=C(\C)CC/C=C(\C)CC(OC(=O)/C(=C/CO)CO)[C@@H]12` (some centres not stated), the TGI in assay [1] was 15.9 µM; in assay [2] it was greater than 85.7 µM; in [3], 31.8 µM; in assay [4] it was 4.07 µM; in [5], 3.5 µM; in assay [6], 57.3 µM. In addition, the TGI in assay [7] came to 3.36 µM; in [8], 34.2 µM; in assay [9] it was 5.4 µM; in assay [10], 11.5 µM; in assay [11], 27.2 µM; in assay [12], 9.21 µM. Further, the figures for the TGI in [13], in [14] and in assay [15] were 29 µM, 23.9 µM and 26.3 µM, respectively.

On to `C=CCN1C(=O)/C(=C/c2ccc(OC)cc2)N=C1SC1OC(COC(C)=O)C(OC(C)=O)C(OC(C)=O)C1OC(C)=O` (configuration not stated), for which the TGI in assay [1] was 67.5 µM; in assay [2], greater than 100 µM; in assay [3], 37.1 µM and > 100 µM; in assay [4] it was greater than 100 µM; in assay [5], greater than 100 µM; in assay [6], greater than 100 µM. For the same molecule, the TGI in assay [7] is greater than 100 µM; in assay [8], 48.1 µM and > 100 µM; in assay [9] it was greater than 100 µM; in assay [10], greater than 100 µM; in [11], 89.4 µM; in assay [12], greater than 100 µM. Moreover, the TGI in assay [13] was 46 µM and > 100 µM; in assay [15], 44.5 µM and > 100 µM. In addition, the GI50 is 16.9 µM and 52.6 µM in assay [3]; 13.1 µM and 54.1 µM in assay [4]; 5.2 µM and 16.4 µM in assay [5]; 18.8 µM and 43.6 µM in [8]; 19.9 µM and 42.8 µM in assay [15].

Take `CCNC1=C(NC(=O)c2ccc(OC)cc2)C(=O)c2ccccc2C1=O`: the TGI in [1], in [2], in assay [3], in assay [4], in [5] and in [6] was greater than 100 µM in each case. Moreover, the TGI in assay [7], in [8], in [9], in [10], in [11] and in assay [12] was greater than 100 µM in each case. In addition, the TGI in [13] and in assay [15] was greater than 100 µM each time.

As to `CC(C)=CC[C@H]1C[C@@]2(CC=C(C)C)C(=O)/C(=C(/O)c3ccccc3)C(=O)[C@](CC=C(C)C)(C2=O)C1(C)C`, the TGI in assay [1] stood at 35.2 µM; in assay [2], 20.4 µM; in assay [3] it was 19.3 µM; in [4], 35 µM; in assay [5], 32.5 µM; in [6], 23.7 µM. In addition, the TGI in [7] was 54.9 µM; in assay [8], 13.6 µM; in assay [10], 21.4 µM; in assay [11] it was 14.8 µM; in assay [12] it was 50.4 µM; in assay [13] it was 20 µM. In addition, the figures for the TGI in assay [14] and in [15] were 13.3 µM and 48 µM, respectively.

For the molecule `CN(C(=O)c1cc2c(s1)sc1c(=O)n(C)c3ccccc3c12)c1ccccc1`, the TGI in assay [1], in [2], in assay [3], in [4], in assay [5] and in assay [6] was greater than 100 µM each time. The TGI in [8], in assay [9], in assay [10], in assay [11], in [12] and in [13] was greater than 100 µM each time. Further, the TGI was 24.5 µM in assay [14] and 59.8 µM in assay [15].

As for `CC1(C)CC2C(/C1=N/O)C1(C)CCCC2(C)C1O` (configuration not stated), the TGI in assay [1], in [2], in assay [3], in assay [4], in assay [5] and in assay [6] was greater than 100 µM each time. Also, the TGI in assay [7], in assay [8], in assay [9], in assay [10], in assay [11] and in assay [12] was greater than 100 µM throughout. Besides, the TGI in assay [13] and in assay [14] was greater than 100 µM throughout.

Regarding `N#CCCN(CCCN(C(=O)Nc1ccc(NC(=O)N(CCCN(CCC#N)C(N)=O)c2ccccc2)cc1)c1ccccc1)C(N)=O`, the TGI in [1], in assay [2], in assay [3], in assay [4], in [5] and in assay [6] was greater than 100 µM each time. Moreover, the TGI in [7], in [8], in [9], in assay [10], in assay [12] and in [13] was greater than 100 µM each time. In addition, the TGI in assay [14] and in [15] was greater than 100 µM in each case.

As for `O=C(/N=C1/OC(CN2CCOCC2)CN1C(=O)Nc1ccccc1)Nc1ccccc1` (configuration not stated), the TGI in assay [1], in assay [2], in [3], in [4], in assay [5] and in assay [6] was greater than 100 µM each time. The TGI in [7], in assay [8], in assay [9], in assay [10], in assay [11] and in assay [12] was greater than 100 µM each time. The TGI in [13] and in assay [14] was greater than 100 µM throughout.

`N/N=C(/CC(O)(C(F)(F)F)C(F)(F)F)c1ccccc1`: the TGI in assay [1], in [2], in [3], in assay [4], in assay [5] and in assay [6] was greater than 10 µM in each case. Also, the TGI in assay [7], in assay [8], in assay [9], in assay [10], in [11] and in assay [12] was greater than 10 µM each time. Also, the TGI in assay [13] and in assay [15] was greater than 10 µM throughout.
